Experimental data reported in patent publication US6653354B2, “NMDA antagonist comprising xenon” (priority 1999, dated 2003).

Legend:
[1] = tested on: adenylyl cyclase (AC) / alpha-2 adrenergic receptors; experiment: Adenylyl cyclase activity in neuroblastoma X glioma hybrid cell line (synaptic plasticity paradigm); format: cell-based
From the text: Perturbation of function in the central nervous system can be produced by a change in the strength of neural connections, which is referred to as synaptic plasticity. The present inventors have used the neuroblastoma X glioma hybrid cell line to examine the effect of xenon on synaptic plasticity. In this paradigm the alpha-2 adrenergic receptors, which are pivotally involved in synaptic transmission, inhibit adenylyl cyclase (AC).
To examine the inhibitory effect of alpha-2 adrenergic receptors on AC it is first necessary to stimulate the endogenous AC with Prostaglandin E1 (PGE1).
To induce “synaptic plasticity” cells are pretreated for 8 hours with norepinephrine; after preparing homogenates from thoroughly washed cells, re-applied norepinephrine loses its inhibitory effect on PGE1-stimulated AC activity.

[2] = tested on: glutamatergic synapses (NMDA receptor slow component, AMPA/KA receptor fast component) of hippocampal neurons; experiment: Excitatory (glutamatergic) postsynaptic currents, voltage-clamped autaptic hippocampal neurons; format: cell-based, rat
Protocol: Hippocampal neurons were grown in culture using methods described previously (Segal M M et al, J. Neurophysiol. 1990, 64:1390-1399; Bekkers J M et al, Proc. Natl. Acad. Sci. U.S.A. 1991, 88:7834-7838; Mennerick S et al, J. Neurophysiol. 1995, 73:320-332). Briefly, hippocampi from Sprague Dawley rats (postnatal day 1-3) were dissected, roughly sliced and agitated in a papain-containing solution (20 units ml^−1) for 30 minutes at 37 EC. After washing with enzyme-free solution, the tissue was gently triturated with a fire-polished Pasteur pipette and the cells were plated out at a density of 8-10×10^4 cells ml^−1 and cultured (95% air/5% CO2) at 37° C. Glass coverslips used for culturing the cells were first coated with agarose (0.15% w/v) and then sprayed with a fine mist of poly-D-lysine (PDL) and collagen (0.1 mg ml^−1 PDL and 0.5 mg ml^−1 rat-tail collagen) from a glass micro-atomiser and sterilized by UV exposure. This produced micro-islands of permissive substrate with diameters of between 100 and 1000 μm. At 3-4 days after plating, when the glial cell layer was about 80% confluent, an anti-mitotic agent (cytosine β-D-arabinofuranoside, 5 μM) was added to arrest glial cell proliferation. Neuronal cultures were then allowed to mature for another 4-9 days. We used micro-islands which contained single isolated neurons whose axonal processes and dendritic trees formed multiple self-synapses (autapses). This procedure provided a large population of phenotypically identical monosynaptic connections.
The neurons were voltage-clamped using the whole-cell recording technique (Axopatch 200 amplifier, Axon Instruments, Foster City, Calif.). Electrodes were fabricated from borosilicate glass and typically had resistances of between 3-5 MΩ. Series resistance was compensated by 75-90%. Neurons were voltage-clamped at −60 mV, and synaptic responses were stimulated by a 2 ms depolarising pulse to +20 mV. […] For the synaptic measurements, data were sampled at 50 kHz, filtered at 20 kHz (−3 dB, 8-pole Bessel) and stored on a computer. The extracellular recording solution was (mM) 137 NaCl, 5 KCl, 3 CaCl2, 5 HEPES, 10 glucose, 0.001 glycine, 0.0001 strychnine-HCl, titrated to pH 7.3 with NaOH; and the intracellular (pipette) solution was (mM) 140 KCl, 4 NaCl, 0.5 EGTA, 2 MgATP, 10 HEPES, titrated to pH 7.25 with KOH.
Xenon solutions were prepared by first bubbling pure gases (oxygen, nitrogen or xenon) through fine sintered-glass bubblers in 250- or 500-ml Drechsel bottles filled with extracellular recording saline. […] (To minimise oxidization, the neurotoxins and neurotransmitters were excluded from the fully oxygenated saline.) During bubbling, the solutions were continually stirred at room temperature. These solutions were then mixed to achieve the desired final concentrations of the gases. Our control solutions usually contained 80% of the nitrogen solution and 20% of the oxygen solution, while our test solutions usually contained 80% of the xenon solution and 20% of the oxygen solution. Using a Bunsen water/gas partition coefficient of 0.0965 (Smith R A et al, Biochim. Biophys. Acta 1981, 645:327-338) we calculate that our standard test solution contained 3.4 mM xenon. Xenon (research grade, 99.993% pure) was supplied by BOC gases, Guildford, Surrey, UK. In all cases xenon was pre-applied to the neurons for at least 30 seconds before the initiation of synaptic currents.
In order to obtain an estimate for the total charge transfer, the EPSCs or IPSCs were numerically integrated.

NMDA receptors = format: cell-based, rat; conditions: neurons clamped at −60 mV
[3] = tested on: neurons of arcuate nucleus of hypothalamus; experiment: NMA-induced neuron injury in the arcuate nucleus (neuroprotection in vivo); parameters: species or system Sprague Dawley female adult rats; conditions: MK801 0.5 mg/kg s.c. + NMA 100 mg/kg s.c.
Protocol: It can be seen that NMA caused neuronal degeneration and vacuoulated swelling in the neuropil giving a spongiform appearance in the arcuate nucleus (E). The degenerated neuron has a pyknotic nucleus, which look like “bulls' eyes” because of oedematous swelling of the cytoplasmic compartment.
Rats were injected with NMA (100 mg/kg) sc and sacrificed 4 hours later after exposure to air (“NMA”; n=7) or xenon 75% (“75% xenon+NMA”; n=8). (For comparison the effect of MK801, the NMDA antagonist, is also shown). The arcuate nucleus was removed and sectioned and stained with cresyl violet. Control animals (“PS”; n=6) had neither NMA nor xenon administered. Data are reflected as either the mean of three sections/animal (upper) or the sum (lower) of degenerated neurons in both arcuate nuclei.

[4] = tested on: c Fos expression in arcuate nucleus of hypothalamus; experiment: c Fos expression in arcuate nucleus after NMA (inhibition of synaptic plasticity in vivo); parameters: species or system Sprague Dawley female adult rats; conditions: MK801 0.5 mg/kg s.c. + NMA 100 mg/kg s.c.
From the text: With exposure to NMA neuronal activation is enhanced (E vs A) which is indicative of synaptic plasticity. In the presence of both Xenon (D) and MK 801 (B), synaptic plasticity induced by NMA is inhibited. […] This is sometimes referred to as long term potentiation, an example of synaptic plasticity. […] The attenuation of c Fos expression is a reflection of the inhibition of synaptic plasticity.

[5] = excitatory currents + 200 μM AP5

**Q.** Which “effect on adenylyl cyclase (AC) activity” value ([1]; increasing doses of PGE1) does the source give for `CCCCC[C@H](O)/C=C/[C@H]1[C@H](O)CC(=O)[C@@H]1CCCCCCC(=O)O` [PGE1, Prostaglandin E1] here?
**A.** The value was “dose-dependently stimulates”.

**Q.** How did the “reduction in total charge transfer” value ([2]; 200 μM AP5) turn out when `NC(CCCP(=O)(O)O)C(=O)O` (racemic) [AP5, DL-2-amino-5-phosphononpentanoate, reference compound] was run?
**A.** The value was 75%.

**Q.** And the “Decay half-time % change (means ± SEM)” value [2, 5]?
**A.** The value was −24.1 ± 3.3%.

**Q.** What about the “Ifast % change (means ± SEM)” value [2, 5] of the same molecule?
**A.** The value was 6.8 ± 6.2%.

**Q.** And the “Ipeak % change (means ± SEM)” value [2, 5]?
**A.** The value was −16.3 ± 2.1%.

**Q.** And the “Islow % change (means ± SEM)” value [2, 5]?
**A.** The value was −98.8 ± 0.8%.

**Q.** What about the “Qfast % change (means ± SEM)” value [2, 5] of the same molecule?
**A.** Its value is 5.3 ± 9.6%.

**Q.** And the “Qslow % change (means ± SEM)” value [2, 5]?
**A.** The value was −96.0 ± 3.4%.

**Q.** And the “Total charge transfer % change (means ± SEM)” value [2, 5]?
**A.** The value was −75.2 ± 2.5%.

**Q.** And the “τfast % change (means ± SEM)” value [2, 5]?
**A.** Its value is −5.9 ± 2.3%.

**Q.** How did the “effect on PGE1-stimulated AC activity” value ([1]; norepinephrine coadministered with PGE1) turn out when `NC[C@H](O)c1ccc(O)c(O)c1` [norepinephrine] was run?
**A.** Its value is “dose-dependently inhibited”.

**Q.** With `CN[C@H](CC(=O)O)C(=O)O` [NMDA, N-methyl-D-aspartate] as the molecule, how does the Hill coefficient (NMDA receptors) read?
**A.** The Hill coefficient was 1.2±0.1.

**Q.** What about the EC50 (NMDA receptors; read-out: EC50 for activation of inward current) of the same molecule?
**A.** Its EC50 is 24 ± 2 µM.

**Q.** What does the source list for `C[C@]12N[C@H](Cc3ccccc31)c1ccccc12` [MK801, reference compound]?
**A.** NMA-induced neuronal injury (cresyl fast violet histology) [3]: prevented NMA-induced injury; synaptic plasticity induced by NMA (c Fos expression) [4]: is inhibited
